{
  "source": "patent US10703760B2",
  "about": "“Morphic forms of marizomib and uses thereof” (Celgene International II Sàrl, priority 2016, dated 2020)",
  "test": "Polymorph screen of marizomib Sample 4 (evaporation, cooling, solvent/antisolvent, slurry, grinding, heat stress, amorphous attempts)",
  "format": "physicochemical",
  "procedure": "For slow evaporation (SE), solutions containing marizomib Sample 4 in selected solvents were allowed to evaporate at ambient temperature from vials covered with perforated aluminum foil. For fast evaporation (FE), solutions containing marizomib Sample 4 in selected solvents were allowed to evaporate at ambient temperature from open vials. The results are given below in Table-10. For flash evaporation, […] of disordered marizomib Sample 4 were added dropwise to pre-warmed glass vials, allowing the solvent to flash evaporate immediate upon contact. Resulting solids were collected for analysis. The corresponding figure numbers are given in the right hand column.\nFor crash cooling (CC), concentrated solutions of marizomib Sample 4 were prepared at elevated temperature and filtered through pre-warmed 0.2-μm nylon filters into a clean vial pre-chilled in a dry ice/acetone bath. For fast cooling (FC) and slow cooling (SC), solutions containing marizomib Sample 4 in selected solvents at elevated temperatures in sealed vials. Solutions were then filtered into clean vials with 0.2-μm nylon filters and removed from the heating plate and left at ambient conditions (FC) or allowed to cool to specified temperature on the heating plate (SC). The results are given below in Table-11. As set forth below, the ratio of solvent mixtures are given by volume. Temperature and time are approximate. […]",
  "data": [
    {"compound": "C[C@@]12OC(=O)[C@]1([C@@H](O)[C@@H]1C=CCCC1)NC(=O)[C@@H]2CCCl", "note": "[marizomib]", "values": [
      {"measurement": "Morphic form observed after exposure to solvents and anti-solvents", "value": "only morphic Form I was observed"}
    ]}
  ]
}
